Experimental data from the SangsterLogP compilation.

test: method code SF-AS, from DOI: 10.1177/1934578x0700201005; settings: pH 7.4

SMILES | logD
O=c1cc(-c2ccccc2O)oc2ccccc12 | 3.01
O=c1cc(-c2ccccc2)oc2c(O)cccc12 | 3.03
COc1c(-c2ccccc2)oc2ccccc2c1=O | 3.18
COc1ccccc1-c1cc(=O)c2ccccc2o1 | 3.14
O=c1c(O)c(-c2ccccc2)oc2ccccc12 | 3.52

Next, values leading:

logD | SMILES
3.26 | COc1cccc(-c2cc(=O)c3ccccc3o2)c1
3.21 | COc1ccc(-c2cc(=O)c3ccccc3o2)cc1
3.39 | O=c1cc(-c2ccccc2)oc2cccc(O)c12
2.9 | COc1ccc2c(=O)cc(-c3ccccc3)oc2c1O
2.98 | COc1cccc2oc(-c3ccccc3)cc(=O)c12
3.12 | COc1ccc2c(=O)cc(-c3ccccc3)oc2c1
3.03 | O=c1cc(-c2cccc(O)c2)oc2ccccc12
3.22 | COc1ccc2oc(-c3ccccc3)cc(=O)c2c1
